Laboratory results reported in US20260137820A1, “TRIFUNCTIONAL COMPOUND AND USE THEREOF” (PEKING UNIVERSITY, priority 2022, published 2026).
*1 amine or outer side, *2 acyl side, *3 side chain or, on linkers, in order; H or OH if unused. Where a SMILES comes first, the peptide text is derived from it. Side-chain parts run from the residue outwards. [ ]: non-standard residue; d: D form. The star is where a group is joined. DOTA = O=C(O)CN1CCN(CC(=O)O)CCN(CC(=O)*)CCN(CC(=O)O)CC1; X1 = O=C([C@@H](Cc1ccc(OS(=O)(=O)F)cc1)N[*:1])[*:2]; 2Nal = N[C@@H](Cc1ccc2ccccc2c1)C(=O)O; dNMeOrn = CN[C@H](CCCN)C(=O)O; 4Amb = NCc1ccc(C(=O)O)cc1

Tests used:
[1] = tested on: Daudi tumor; test: PET/CT imaging in tumor mouse model with high CXCR4 expression; type: in vivo; details: 7.4-18.5 MBq i.v., 2 hours, p<0.05
Method: (§1) All PET/CT scans were carried out on Mediso nanoScan® PET 122S small animal PET/CT.
(§2) A certain number (n=4) of Daudi tumor mice (for the construction method, see the method in PET Imaging of CXCR4 Receptors in Cancer by a New Optimized Ligand, published by Oliver Demmer et al.) were taken and intravenously injected at specified time points with 7.4-18.5 MBq of ^68Ga-pentixafor (as a control, the labeled precursor is readily commercially available, and the structure is specifically disclosed) and ^68Ga-CXCR4-CB-03 molecules (Note: the injection of the control and investigation molecules was separated apart by at least 12 hours until the previous ^68Ga molecule essentially completely decayed and was essentially completely metabolized). Imaging was carried at the time point of 2 hours, and the SUVmax value in tumor was obtained by a software.

[2] = tested on: AR42J tumor; test: PET/CT imaging in tumor mouse model with high SSTR2 expression; type: in vivo; details: 7.4-18.5 MBq i.v., 2 hours, p<0.05
Method: as §1
as §2, with “AR42J” for “Daudi”, “Combination radionuclide therapy using ^177Lu-and ^90Y-labeled somatostatin analogs,” for “PET Imaging of CXCR4 Receptors in Cancer by a New Optimized Ligand,”, “Marion de Jong” for “Oliver Demmer”, “^68Ga-DOTATATE” for “^68Ga-pentixafor”, “^68Ga-SSTR2-CB-02” for “^68Ga-CXCR4-CB-03”

Structure (SMILES): CN1C(=O)[C@@H](Cc2ccc(OS(=O)(=O)F)cc2)NC(=O)CNC(=O)[C@H](Cc2ccc3ccccc3c2)NC(=O)[C@H](CCCNC(=N)N)NC(=O)[C@H]1CCCNC(=O)c1ccc(CNC(=O)CN2CCN(CC(=O)O)CCN(CC(=O)O)CCN(CC(=O)O)CC2)cc1 [^68Ga-CXCR4-CB-03, metal not drawn] (cyclo([2Nal]G[X1][dNMeOrn]([4Amb-DOTA])R))
- drug tumor uptake (SUVmax) compared with ^68Ga-pentixafor [1]: significantly higher

Structure (SMILES): C[C@@H](O)[C@H](NC(=O)[C@@H]1CSSC[C@H](NC(=O)[C@@H](Cc2ccccc2)NC(=O)CN2CCN(CC(=O)O)CCN(CC(=O)O)CCN(CC(=O)O)CC2)C(=O)N[C@@H](Cc2ccc(OS(=O)(=O)F)cc2)C(=O)N[C@H](Cc2c[nH]c3ccccc23)C(=O)N[C@@H](CCCCN)C(=O)N[C@@H]([C@@H](C)O)C(=O)N1)C(=O)O [^68Ga-SSTR2-CB-02, metal not drawn]
- drug tumor uptake (SUVmax) compared with ^68Ga-DOTATATE [2]: significantly higher
